Counter-ions that a name gives are not always drawn.
What follows are compounds tested against T1, human CGT (ceramide galactosyltransferase), CHO/CGT lysate (Homo sapiens, UniProt Q16880) (assay: CGT enzyme assay, RapidFire/MS/MS readout (Table 1 ranges with one asterisk *)). Conditions: RapidFire method (range with one asterisk *).
T1 construct: Full-length human CGT cDNA was cloned into the BamH1/Xho1 site of pcDNA3.1 (+); expressed in transfected cells; host or cells: Chinese hamster ovary (CHO) cells; lysate prepared with M-PER
T1 sequence (Q16880 21-541): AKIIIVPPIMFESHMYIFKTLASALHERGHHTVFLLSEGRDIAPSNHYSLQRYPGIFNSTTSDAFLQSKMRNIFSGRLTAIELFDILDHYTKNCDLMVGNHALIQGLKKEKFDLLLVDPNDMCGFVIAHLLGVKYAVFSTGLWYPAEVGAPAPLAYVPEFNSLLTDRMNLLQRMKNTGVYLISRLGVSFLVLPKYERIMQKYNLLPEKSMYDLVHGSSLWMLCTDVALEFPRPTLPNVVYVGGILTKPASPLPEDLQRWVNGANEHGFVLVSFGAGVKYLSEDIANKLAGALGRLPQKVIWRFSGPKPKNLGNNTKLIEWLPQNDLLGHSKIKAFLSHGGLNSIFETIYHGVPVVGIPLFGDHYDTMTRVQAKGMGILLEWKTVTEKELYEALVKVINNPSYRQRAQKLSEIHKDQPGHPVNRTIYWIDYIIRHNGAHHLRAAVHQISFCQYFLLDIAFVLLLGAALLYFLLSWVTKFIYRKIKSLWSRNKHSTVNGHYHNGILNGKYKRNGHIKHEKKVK
Assay type: biochemical
Experimental: Full-length human CGT cDNA was cloned into the BamH1/Xho1 site of pcDNA3.1 (+) mammalian expression vector (V90-20, Invitrogen, Carlsbad, Calif.) and the plasmid was transfected into Chinese hamster ovary (CHO) cells. Lysate was prepared using M-PER (Mammalian Protein Extraction Reagent, ThermoFisher Scientific, Grand Island, N.Y.) in the presence of a protease inhibitor cocktail (P8340, Sigma, Saint Louis, Mo.). Each 100 mm dish (100% confluent, approximately 1×10^7 cells) was lysed with 250 μL of M-PER containing protease inhibitors. Protein concentration was determined using a Pierce BCA protein assay kit (ThermoFisher Scientific). Four micrograms of CHO/CGT lysate was incubated with various concentrations of a compound (0.001 μM-50 μM) in 10 mM HEPES (pH 7.2) containing 35 μM dioleoylphosphatidylcholine, 5 mM MgCl2, 5 mM MnCl2, 1% BSA, 15 mM KCl, 1 mM EGTA, 8 mM CHAPS, 10 μM C6-NBD-dihydro-ceramide and 17.5 μM UDP-galactose in a final reaction volume of 20 μL at 37° C. for 1 hour. The final concentration of DMSO was 0.5% in both compound-treated and mock-treated samples. Tween 80 (0.01%) was optionally added to the reaction mixture to help solubilize the compounds. Each individual reaction was diluted with 80 μL of methanol:acetronitrile (1:3) containing 5 μM N-docdecanoyl-NBD-galactosylceramide (internal standard) to stop the reaction. 200 μL H2O:acetonitile (1:1) was added to precipitate the protein. After sufficient mixing, the plates were centrifuged at 2469 g for 38 minutes, 200 μL of supernatant was transferred to a LC/MS 96-deep well plate and a second spin was performed at 2469 g for 10 minutes. The final supernatant was injected in triplicate for RapidFire/MS/MS analysis.
Quantitative Analysis Using the RapidFire/MS/MS Method:
The quantitative analysis of C6-NBD-dihydro-ceramide and C6-NBD-dihydro-galactosylceramide was performed on a Rapid Fire 360 high-throughput mass spectrometry system (Agilent Technologies, Palo Alto, Calif.) coupled with a API4000^+ triple quadrupole mass spectrometer (Applied Biosystems, Concord, Ontario, Canada). RapidFire software packages, including RapidFire Control panel, RapidFire UI and RapidFire Integrator (Agilent Technologies), were used to control the RapidFire instrument and to process data. Analyst 1.6.2 software packages (Applied Biosystems) were used to control the MS system and acquire MS data. […] of sample was loaded on a micro-scale C4 solid-phase extraction (SPE) cartridge (Agilent Technologies) and salts were removed using water supplemented with 0.1% formic acid at the flow rate of 1.5 mL/min for 3 sec. C6-NBD-dihydro-ceramide and C6-NBD-dihydro-galactosylceramide were co-eluted into the mass spectrometer using acetonitrile containing 0.1% formic acid at the flow rate of 1.0 mL/min for 3 sec. The total cycle time of one injection was 8 secs. The MS/MS detection was performed in ESI negative mode. The mass transition of C6-NBD-dihydro-galactosylceramide was m/z 752.6→678.6 using a −40 V collision energy, the mass transition of C6-NBD-dihydro-ceramide was m/z 590.6→115.8 using a −40 V collision energy and the mass transition of N-docdecanoyl-NBD-galactosylceramide was m/z 820.9→746.3 using a −45 V collision energy.
The C6-NBD-dihydro-galactosylceramide reading was normalized first by dividing the peak area of C6-NBD-dihydro-galactosylceramide by the peak area of the internal standard, N-docdecanoyl-NBD-galactosylceramide. IC50 values (see Table 1, where data ranges with one asterix (*) correspond to analysis using the RapidFire/MS/MS method, and data ranges with two asterixes (**) correspond to analysis using the RapidFire/MS/MS method with 0.01% Tween added) were generated from sigmoidal dose-response curves (variable slope) with GraphPad Prism software (GraphPad Software, Inc., San Diego, Calif.) using the normalized peak areas of C6-NBD-dihydro-galactosylceramide or the percent inhibition of C6-NBD-dihydro-galactosylceramide accumulation relative to DMSO control. […]

SMILES	IC50 [µM]
NC1CCN(C(=O)[C@@H](NS(=O)(=O)c2ccc3cc(OC4CCCC4)ccc3c2)C(F)(F)c2ccc(Cl)s2)CC1 [Compound 131-1, (R)—N-(3-(4-aminopiperidin-1-yl)-1-(5-chlorothiophen-2-yl)-1,1-difluoro-3-oxopropan-2-yl)-6-(cyclopentyloxy)naphthalene-2-sulfonamide]	1 to 10
CN([C@H](C(=O)N1CCC(N)CC1)C(F)(F)c1ccc(Br)cc1)S(=O)(=O)c1ccc2cc(OC3CCCC3)ccc2c1 [Compound 44-1, (R)—N-(3-(4-aminopiperidin-1-yl)-1-(4-bromophenyl)-1,1-difluoro-3-oxopropan-2-yl)-6-(cyclopentyloxy)-N-methylnaphthalene-2-sulfonamide]	< 1
NC1CCN(C(=O)[C@H](NS(=O)(=O)c2ccc(OCC3CCCCC3)cc2)C(F)(F)c2ccc(C(F)(F)F)cc2)CC1 [Compound 72-2, (S)—N-(3-(4-aminopiperidin-1-yl)-1,1-difluoro-3-oxo-1-(4-(trifluoromethyl)phenyl)propan-2-yl)-4-(cyclohexylmethoxy)benzenesulfonamide]	30 to 100
CCCCOc1cccc(C(F)(F)[C@H](NS(=O)(=O)c2ccc3cc(OC4CCCC4)ccc3c2)C(=O)N2C3CCC2CC(N)C3)c1 (stereo partly drawn) [Compound 90-1, N-((2R)-3-(3-amino-8-azabicyclo[3.2.1]octan-8-yl)-1-(3-butoxyphenyl)-1,1-difluoro-3-oxopropan-2-yl)-6-(cyclopentyloxy)naphthalene-2-sulfonamide trifluoroacetate]	< 1
CCOc1ccc(C(F)(F)[C@@H](C(=O)N2C3CCC2CC(N)C3)N(C)S(=O)(=O)c2ccc3cc(OC4CCCC4)ccc3c2)cc1 (stereo partly drawn) [Compound 114-1, N-((2R)-3-(3-amino-8-azabicyclo[3.2.1]octan-8-yl)-1-(4-ethoxyphenyl)-1,1-difluoro-3-oxopropan-2-yl)-6-(cyclopentyloxy)-N-methylnaphthalene-2-sulfonamide]	1 to 10
NC1CCN(C(=O)[C@H](NS(=O)(=O)c2ccc3c(cnn3CC3CCCC3)c2)C(F)(F)c2ccc(-c3ccc(Cl)cc3)cc2)CC1 [Compound 95-2, (S)—N-(3-(4-aminopiperidin-1-yl)-1-(4′-chloro-[1,1′-biphenyl]-4-yl)-1,1-difluoro-3-oxopropan-2-yl)-1-(cyclopentylmethyl)-1H-indazole-5-sulfonamide]	10 to 30
NC1CC2CCC(C1)N2C(=O)[C@H](NS(=O)(=O)c1ccc2cc(OC3CCCC3)ccc2c1)C(F)(F)c1ccc(-c2ccccc2)cc1 (stereo partly drawn) [Compound 36-2, N-((2S)-1-([1,1′-biphenyl]-4-yl)-3-(3-amino-8-azabicyclo[3.2.1]octan-8-yl)-1,1-difluoro-3-oxopropan-2-yl)-6-(cyclopentyloxy)naphthalene-2-sulfonamide trifluoroacetate]	1 to 10
CCCCOc1cc(C(F)(F)[C@@H](NS(=O)(=O)c2ccc(OCC3CCCCC3)cc2)C(=O)N2C3CCC2CC(N)C3)ccc1Cl (stereo partly drawn) [Compound 120-2, N-((2S)-3-(3-amino-8-azabicyclo[3.2.1]octan-8-yl)-1-(3-butoxy-4-chlorophenyl)-1,1-difluoro-3-oxopropan-2-yl)-4-(cyclohexylmethoxy)benzenesulfonamide]	1 to 10
NC1CC2CCC(C1)N2C(=O)[C@H](NS(=O)(=O)c1ccc(OCC2CCCCC2)cc1)C(F)(F)c1cccc(-c2ccccc2)c1 (stereo partly drawn) [Compound 70-2, N-((2S)-1-([1,1′-biphenyl]-3-yl)-3-(3-amino-8-azabicyclo[3.2.1]octan-8-yl)-1,1-difluoro-3-oxopropan-2-yl)-4-(cyclohexylmethoxy) benzenesulfonamide trifluoroacetate]	1 to 10
NC1CCN(C(=O)[C@H](NS(=O)(=O)c2ccc(OCC3CCCCC3)cc2)C(F)(F)c2ccc(Cl)cc2)CC1 [Compound 30-2, (S)—N-(3-(4-aminopiperidin-1-yl)-1-(4-chlorophenyl)-1,1-difluoro-3-oxopropan-2-yl)-4-(cyclohexylmethoxy)benzenesulfonamide trifluoroacetate]	10 to 30
NC1CC2CCC(C1)N2C(=O)[C@H](NS(=O)(=O)c1ccc2cc(OC3CCCC3)ccc2c1)C(F)(F)c1ccc(-c2ccc(Cl)s2)cc1 (stereo partly drawn) [Compound 101-2, N-((2S)-3-(3-amino-8-azabicyclo[3.2.1]octan-8-yl)-1-(4-(5-chlorothiophen-2-yl)phenyl)-1,1-difluoro-3-oxopropan-2-yl)-6-(cyclopentyloxy)naphthalene-2-sulfonamide]	1 to 10
CCCCOc1cccc(C(F)(F)[C@@H](NS(=O)(=O)c2ccc3cc(OC4CCCC4)ccc3c2)C(=O)N2CCC(N)CC2)c1 [Compound 83-2, (S)—N-(3-(4-aminopiperidin-1-yl)-1-(3-butoxyphenyl)-1,1-difluoro-3-oxopropan-2-yl)-6-(cyclopentyloxy)naphthalene-2-sulfonamide trifluoroacetate]	1 to 10
NCC1CCN(C(=O)[C@H](NS(=O)(=O)c2ccc3cc(OC4CCCC4)ccc3c2)C(F)(F)c2ccc(Br)cc2)CC1 [Compound 57-2, (S)—N-(3-(4-(aminomethyl)piperidin-1-yl)-1-(4-bromophenyl)-1,1-difluoro-3-oxopropan-2-yl)-6-(cyclopentyloxy)naphthalene-2-sulfonamide trifluoroacetate]	10 to 30
NC1CC2CCC(C1)N2C(=O)[C@@H](NS(=O)(=O)c1ccc(OCC2CCCCC2)cc1)C(F)(F)c1cccc(Oc2ccccc2)c1 (stereo partly drawn) [Compound 113-1, N-((2R)-3-(3-amino-8-azabicyclo[3.2.1]octan-8-yl)-1,1-difluoro-3-oxo-1-(3-phenoxyphenyl)propan-2-yl)-4-(cyclohexylmethoxy)benzenesulfonamide trifluoroacetate]	< 1
CN([C@@H](C(=O)N1C2CCC1CC(N)C2)C(F)(F)c1ccc(Cl)cc1)S(=O)(=O)c1ccc2cc(OC3CCCC3)ccc2c1 (stereo partly drawn) [Compound 52-2, N-((2S)-3-(3-amino-8-azabicyclo[3.2.1]octan-8-yl)-1-(4-chlorophenyl)-1,1-difluoro-3-oxopropan-2-yl)-6-(cyclopentyloxy)-N-methylnaphthalene-2-sulfonamide]	30 to 100
NC1CC2CCC(C1)N2C(=O)[C@@H](NS(=O)(=O)c1ccc2cc(OC3CCC3)ccc2c1)C(F)(F)c1ccc(Br)cc1 (stereo partly drawn) [Compound 47-1, N-((2R)-3-(3-amino-8-azabicyclo[3.2.1]octan-8-yl)-1-(4-bromophenyl)-1,1-difluoro-3-oxopropan-2-yl)-6-cyclobutoxynaphthalene-2-sulfonamide]	1 to 10

From patent publication US20190322676A1, “CERAMIDE GALACTOSYLTRANSFERASE INHIBITORS FOR THE TREATMENT OF DISEASE” (BioMarin Pharmaceutical Inc., priority 2016, published 2019)
